Columns and labels:
[1] = tested on: human erythroleukemia cells; assay: Thalidomide-induced apoptotic cell death of erythroleukemia cells; assay type: cell-based
Procedure: The human myeloid leukemia cells were cultured in RPMI 1640 medium supplemented with 10% non-inactivated fetal bovine serum. The effects of PACAP38, [D-Ser^2]PACAP38 and VIP on apoptotic cell death was assessed by the quantitative determination of cytoplasmic histone-associated DNA-fragmentation (mono- and oligonucleosomes) after exposure to thalidomide for 48 hours. Each value represents the mean plus/minus the standard deviation of four determinations. **p<0.01 and *p<0.05 compared to the thalidomide-treated (control) cells.

[2] = tested on: light-chain immunoglobulin-secreting human myeloma cells; assay: Vincristine-induced apoptotic cell death of myeloma cells; assay type: cell-based
Procedure: (§1) The light-chain immunoglobulin-secreting human myeloma cells were cultured in RPMI 1640 medium supplemented with 10% non-inactivated fetal bovine serum and 0.05 mM 2-mercaptoethanol. The effects of PACAP38 on apoptotic cell death was assessed by the quantitative determination of cytoplasmic histone-associated DNA-fragmentation (mono- and oligonucleosomes) after exposure to vincristine for 48 hours. Each value represents the mean plus/minus the standard deviation of four determinations. **p<0.01 and *p<0.05 compared to the vincristine-treated (control) cells.

Male C57BL/6 mice = assay: Cisplatin-induced nephrotoxicity in mice; assay type: in vivo, mouse; conditions: cisplatin 20 mg/kg i.p.
Procedure: (§2) Male C57BL/6 mice were given a single intraperitoneal injection of 20 mg/kg of cisplatin. Twenty nanomoles of PACAP38 were given intraperitoneally 1 hour before the injection of cisplatin and additional doses were given at 24 and 48 hours after the initial dose. The control group of mice was injected intraperitoneally with the same volume of saline as for the injections of cisplatin and PACAP38 on the same schedule. The mice were euthanized 24 hours after the final injection of PACAP38. Each value represents the mean plus/minus the standard error of four determinations. ***p<0.001 and **p<0.01 compared to the group treated only with cisplatin.
as §2, with “PACAP38. TNF-α was extracted from one kidney of each mouse and quantified with an enzyme-linked immunosorbent assay.” for “PACAP38.”
Male C57BL/6 mice were given a single intraperitoneal injection of 20 mg/kg of cisplatin. Twenty nanomoles of PACAP38 were given intraperitoneally 1 hour before the injection of cisplatin and additional doses were given at 24 and 48 hours after the initial dose. The control group of mice were injected intraperitoneally with the same volume of saline as for the injections of cisplatin and PACAP38 on the same schedule. The mice were euthanized 24 hours after the final injection of PACAP38, and the kidneys were removed and fixed in 10% formalin. The fixed sections were stained with hematoxylin and eosin. The sections of the kidneys from control mice show intact renal tubular epithelial cells and well-preserved brush border membranes. The kidneys from mice treated with cisplatin had extensive tubular damage, tubular dilations, intratubular debris, and intratubular casts. […] Tubular damage was more pronounced in the outer cortex in the cisplatin treated mice. The photomicrographs on the left side were made at a lower magnification (×160) than the photomicrographs on the right side (×320). The results described in FIGS. 5, 6, 7, and 8 were from the same experiment.
as §2, with “six” for “four”
as §2, with “The cytoprotective effect of PACAP38 against cisplatin-induced nephrotoxicity was also seen in a common in vivo model. Male” for “Male”, “PACAP38.” for “PACAP38. Each value represents the mean plus/minus the standard error of four determinations. ***p<0.001 and **p<0.01 compared to the group treated only with cisplatin.”

HK-2 human kidney cells = assay: Doxorubicin-induced apoptotic cell death of human renal proximal tubule epithelial cells; assay type: cell-based; conditions: HK-2 cells, peptide added to the medium, FIG. 11
Procedure: The HK-2 human kidney cells were cultured in Keratinocyte-Serum Free Medium supplemented with recombinant epidermal growth factor and bovine pituitary extract. […] Each value represents the mean plus/minus the standard deviation of four determinations in three replicate experiments. **p<0.01 and *p<0.05 compared to the doxorubicin-treated (control) cells.
At the highest dose tested (10^−6 M), all three peptides reduced the apoptotic cell death of these epithelial cells by more than 60%.

[3] = tested on: Jurkat human T-lymphocyte leukemia cells; assay: Etoposide-induced apoptotic cell death of leukemia cells; assay type: cell-based
Procedure: The Jurkat human T-lymphocyte leukemia cells were cultured in RPMI 1640 medium supplemented with 10% non-inactivated fetal bovine serum. The effects of PACAP27 and PACAP38 on apoptotic cell death was assessed by the quantitative determination of cytoplasmic histone-associated DNA-fragmentation (mono- and oligonucleosomes) after exposure to etoposide for 48 hours. Each value represents the mean plus/minus the standard deviation of three determinations. **p<0.01 and *p<0.05 compared to the etoposide-treated (control) cells.

[4] = tested on: light-chain immunoglobulin-secreting human myeloma cells; assay: Doxorubicin-induced apoptotic cell death of myeloma cells; assay type: cell-based
Procedure: as §1, with “PACAP38, and [Ala^16,17,D-Lys^38]PACAP38” for “PACAP38”, “doxorubicin” for “vincristine”, “three” for “four”, “doxorubicin-treated” for “vincristine-treated”
At the lowest dose tested (10^−8 M), both peptides reduced the doxorubicin-induced apoptotic cell death of these malignant plasma cells.

PACAP38
lowest dose with significant enhancement of thalidomide-induced apoptotic cell death [1]: 10^−8 M | effect on thalidomide-induced apoptotic cell death ([1]; thalidomide 48 hours, FIG. 20): dose-dependent enhancement | lowest dose with significant enhancement of vincristine-induced apoptotic cell death [2]: 10^−9 M | effect on vincristine-induced apoptotic cell death ([2]; vincristine 48 hours, FIG. 18): dose-dependent enhancement | increase in TNF-α in the kidney (Male C57BL/6 mice; 20 nanomoles peptide i.p. 1 h before and at 24 and 48 h, ELISA, FIG. 8): significantly reduced | increase in serum creatinine (Male C57BL/6 mice; 20 nanomoles peptide i.p. 1 h before and at 24 and 48 h, FIG. 6): significantly reduced | increase in blood urea nitrogen (Male C57BL/6 mice; 20 nanomoles peptide i.p. 1 h before and at 24 and 48 h, FIG. 7): significantly reduced | morphology of the kidney (hematoxylin and eosin) (Male C57BL/6 mice; 20 nanomoles peptide i.p. 1 h before and at 24 and 48 h, FIG. 9): relatively well preserved tubular morphology | relative potency as cytoprotectants against cisplatin-induced impairment of kidney function (serum creatinine) (Male C57BL/6 mice; FIG. 10): approximately equipotent | reduction in doxorubicin-induced apoptotic cell death (HK-2 human kidney cells): significant dose-dependent reduction | reduction in etoposide-induced apoptotic cell death ([3]; Jurkat cells, etoposide 48 hours, FIG. 15): small reduction | significance of the reduction of etoposide-induced apoptotic cell death ([3]; Jurkat cells, highest dose tested 10^−6 M): only significant at the highest dose | potency as cytoprotectant of kidney and lung epithelial cells relative to protection of T-lymphocyte leukemia cells against etoposide ([3]; versus cisplatin (FIG. 3), doxorubicin (FIG. 11), bleomycin (FIG. 12)): about 100 fold | effect on doxorubicin-induced apoptotic cell death (dose-response) ([4]; doxorubicin 48 hours, FIG. 16): biphasic dose-response effect | effect on doxorubicin-induced apoptotic cell death ([4]; highest dose tested (10^−6 M)): significantly enhanced | effect on doxorubicin-induced apoptotic cell death ([4]; lowest dose tested (10^−8 M)): reduced

From patent US20110268789A1, “USE OF PITUITARY ADENYLATE CYCLASE-ACTIVATING POLYPEPTIDE (PACAP) AND PACAP ANALOGS AS ADJUNCTIVE TREATMENTS WITH ANTICANCER AGENTS” (priority 2008, published 2011)
